Assay results: patent US11834393B2, “Organic compounds having taste-modifying properties” (GIVAUDAN SA, priority 2013, dated 2023)

Experiments:
[1] = Beef bouillon, evaluation by a panel of experienced tasters; conditions: 1 ppm dosed to bouillon prepared from bouillon cubes
Experimental: A beef bouillon was prepared using bouillon cubes obtained from a local supermarket.

[2] = Mango flavoured beverage, evaluation by a panel of experienced tasters; conditions: 1 ppm dosed to mango drink (mango flavour 0.05% w/w, mango juice 0.18% w/w, sugar 8% w/w, citric acid 0.1% w/w)
Experimental: A mango-flavoured beverage was prepared using a standard mango flavour (0.05% w/w), mango juice (0.18% w/w), sugar (8% w/w) and citric acid (0.1% w/w).

Structure (SMILES): CCCCCCCCCCCCCCCCCCNC(=O)C(N)CCSC (stereo not shown) [Ex 1, 2-amino-4-(methylthio)-N-octadecylbutanamide]
- taste of the beef bouillon compared with the reference (panel) [1]: more salty and more full

Structure (SMILES): CCCCCCCCCCCCCCCCCCNC(=O)C1CCCN1 (stereo not shown) [Ex 3, N-octadecylpyrrolidine-2-carboxamide]
- taste of the mango drink compared with the reference drink (panel) [2]: more over-ripe, more sweet, and more full and had an increased mouthfeel

Structure (SMILES): CCCCCCCCCCCCCCCCCCNC(=O)C1(N)CC1 [Ex 5, 1-amino-N-octadecylcyclopropanecarboxamide]
- taste of the mango drink compared with the reference drink (panel) [2]: more sweet, more ripe mango, more full and more long-lasting

Structure (SMILES): CCCCCCCCCCCCCCCCNC(=O)CCCN [Ex 7, N-hexadecyl 4-aminobutyramide]
- taste of the beef bouillon compared with the reference (panel) [1]: more salty and more umami and was more longlasting
